Counter-ions that a name gives are not always drawn.

`O=C(CN1CC2CCC(C1)N2c1ncc(F)cn1)N1CC=C(c2cccc3ccsc23)CC1`: the melting point (as a rule, the temperature of the solid-liquid transition) lay in the range of 112 to 113 °C. The molecule `Cn1nnnc1-c1ccc(N2C3CCC2CN(CC(=O)N2CC=C(c4cccc5ccoc45)CC2)C3)nc1` had a melting point of 178 to 180 °C.

The molecule `Cc1cc2cc(C3=CCN(C(=O)CN4CC5CCC(C4)N5c4ncc(F)cn4)CC3)ccc2s1` came in with a melting point of 177 to 179 °C. Regarding `O=C(CN1CC2CCC(C1)N2c1ncc(F)cn1)N1CC=C(c2cccc3ccoc23)CC1`, the melting point lay within 157 to 158 °C. The molecule `O=C(CN1CC2CCC(C1)N2c1ncc(F)cn1)N1CC=C(c2ccc3c(c2)OCCO3)CC1` gave a melting point of 163 to 165 °C.

The molecule `O=C(CN1CC2CCC(C1)N2c1ncc(F)cn1)N1CC=C(c2nccc3sccc23)CC1` gave a melting point of 167 to 168 °C. The molecule `O=C(CN1CC2CCC(C1)N2c1ncc(F)cn1)N1CC=C(c2coc3ccccc23)CC1` displayed a melting point of 207 to 210 °C. In turn, `O=C(CN1CC2CCC(C1)N2c1ncc(F)cn1)N1CC=C(c2csc3ccccc23)CC1` came in with a melting point of 172 to 174 °C. `COC(=O)c1ccc(N2C3CCC2CN(CC(=O)N2CC=C(c4cccc5ccoc45)CC2)C3)nc1` came in with a melting point of 158 to 159 °C. In the case of `COC(=O)c1ccc(N2C3CCC2CN(CC(=O)N2CC=C(c4cccc5ccsc45)CC2)C3)nc1`, the melting point fell in the range of 153 to 154 °C.

The molecule `COC(=O)c1ccc(N2C3CCC2CN(CC(=O)N2CC=C(c4ccc5sccc5c4)CC2)C3)nc1` returned a melting point of 150 to 151 °C. In turn, `COC(=O)c1ccc(N2C3CCC2CN(CC(=O)N2CC=C(c4nccc5sccc45)CC2)C3)nc1` showed a melting point of 170 to 171 °C. In turn, `COC(=O)c1ccc(N2C3CCC2CN(CC(=O)N2CC=C(c4ccc5sc(C)cc5c4)CC2)C3)nc1` showed a melting point of 179 to 180 °C. `O=C(O)c1ccc(N2C3CCC2CN(CC(=O)N2CC=C(c4nccc5sccc45)CC2)C3)nc1` showed a melting point of 159 to 160 °C. For the molecule `Cc1cc2cc(C3=CCN(C(=O)CN4CC5CCC(C4)N5c4ccc(C(=O)O)cn4)CC3)ccc2s1`, the melting point was in the range of 160 to 161 °C. The result for `COC(=O)c1ccc(N2C3CCC2CN(CC(=O)N2CC=C(c4cccc5ccoc45)C2)C3)nc1` reads 169 to 170 °C. The molecule `COC(=O)c1ccc(N2C3CCC2CN(CC(=O)N2CC=C(c4cccc5ccsc45)C2)C3)nc1` had a melting point of 172 to 173 °C. The molecule `O=C(O)c1ccc(N2C3CCC2CN(CC(=O)N2CC=C(c4cccc5ccoc45)C2)C3)nc1` returned a melting point of 188 to 189 °C. Consider `O=C(O)c1ccc(N2C3CCC2CN(CC(=O)N2CC=C(c4cccc5ccsc45)C2)C3)nc1`, for which the melting point was 189 to 190 °C. On to `COC(=O)c1ccc(N2C3CCC2CN(CC(=O)N2CC=C(c4ccc5c(c4)OCCO5)CC2)C3)nc1`, for which the melting point fell in the range of 172 to 174 °C. Molecule `O=C(CN1CC2CCC(C1)N2c1ccc(-c2noc(=O)[nH]2)cn1)N1CC=C(c2cccc3ccoc23)CC1` came in with a melting point of 230 to 232 °C. The molecule `Cc1cc2cc(C3=CCN(C(=O)CN4CC5CCC(C4)N5c4ccc(C#N)cn4)CC3)ccc2s1` gave a melting point of 171 to 172 °C. `O=C(CN1CC2CCC(C1)N2c1cccnc1)N1CC=C(c2cccc3ccoc23)CC1` registered a melting point of 121 to 123 °C. The result for `N#Cc1ccc(N2C3CCC2CN(CC(=O)N2CC=C(c4cccc5ccoc45)CC2)C3)nc1` reads 184 to 185 °C; that for `Cc1cc2cc(C3=CCN(C(=O)CN4CC5CCC(C4)N5c4ccc(C(=O)OC5CCC5)cn4)CC3)ccc2s1`, 153 to 154 °C. With `C[C@@H]1CN(c2ccc3ccccc3n2)C[C@H](C)N1CC(=O)N1CC=C(c2cccc3ccsc23)CC1` (as salt: HCl) [Compound 19, 1-(4-benzo[b]thiophen-7-yl-3,6-dihydro-2H-pyridin-1-yl)-2-((2S,6R)-2,6-dimethyl-4-quinolin-2-ylpiperazin-1-yl)ethanone], the melting point was in the range of 192 to 193 °C. Take `C[C@@H]1CN(c2ncc(F)cn2)C[C@H](C)N1CC(=O)N1CC=C(c2cccc3ccoc23)CC1` (as salt: HCl) [Compound 36, 1-(4-benzofuran-7-yl-3,6-dihydro-2H-pyridin-1-yl)-2-[(2S,6R)-4-(5-fluoropyrimidin-2-yl)-2,6-dimethylpiperazin-1-yl]ethanone]: the melting point was 174 to 175 °C.

`C[C@@H]1CN(c2ccc(C(F)(F)F)nc2)C[C@H](C)N1CC(=O)N1CC=C(c2cccc3ccsc23)CC1` (as salt: HCl) [Compound 54, 1-(4-benzo[b]thiophen-7-yl-3,6-dihydro-2H-pyridin-1-yl)-2-[(2S,6R)-2,6-dimethyl-4-(6-trifluoromethylpyridin-3-yl)piperazin-1-yl)ethanone] came in with a melting point of 225 to 226 °C. For `COC(=O)c1ccc(N2C[C@@H](C)N(CC(=O)N3CC=C(c4cccc5ccsc45)CC3)[C@@H](C)C2)nc1` (as salt: HCl) [Compound 58, Methyl 6-{(3S,5R)-4-[2-(4-benzo[b]thiophen-7-yl-3,6-dihydro-2H-pyridin-1-yl)-2-oxoethyl]-3,5-dimethylpiperazin-1-yl}nicotinate], the melting point fell in the range of 208 to 210 °C. With `COC(=O)c1cc2cccc(C3=CCN(C(=O)CN4[C@H](C)CN(c5ccc(C(F)(F)F)cn5)C[C@@H]4C)CC3)c2s1` (as salt: HCl) [Compound 66, Methyl 7-(1-{2-[(2S,6R)-2,6-dimethyl-4-(5-trifluoromethylpyridin-2-yl)piperazin-1-yl]acetyl}-1,2,3,6-tetrahydropyridin-4-yl)benzo[b]thiophene-2-carboxylate], the melting point was in the range of 138 to 141 °C.

`O=C(CN1CC2CCC(C1)N2c1ncc(F)cn1)N1CC=C(c2c[nH]c3cc(F)ccc23)CC1` (as salt: oxalate): the melting point was 95 to 96 °C.

In turn, `C[C@@H]1CN(c2ncc(F)cn2)C[C@H](C)N1CC(=O)N1CC=C(c2ccc3c(c2)OCCO3)CC1` (as salt: oxalate) [Compound 44, 1-[4-(2,3-dihydrobenzo[1,4]dioxin-6-yl)-3,6-dihydro-2H-pyridin-1-yl]-2-[(2S,6R)-4-(5-fluoropyrimidin-2-yl)-2,6-dimethylpiperazin-1-yl]ethanone] showed a melting point of 90 to 91 °C.

For `O=C(CN1CCCN(c2cccnc2)CC1)N1CC=C(c2cccc3ccoc23)CC1` (as salt: oxalate) [Compound 78, 1-(4-benzofuran-7-yl-3,6-dihydro-2H-pyridin-1-yl)-2-(4-pyridin-3-yl-[1,4]diazepan-1-yl)ethanone], the melting point was 100 to 101 °C. With `O=C(CN1CCN(c2ccnc3cc(Cl)ccc23)CC1)N1CC=C(c2cccc3ccoc23)CC1` (as salt: oxalate) [Compound 99, 1-(4-benzofuran-7-yl-3,6-dihydro-2H-pyridin-1-yl)-2-[4-(7-chloroquinolin-4-yl)piperazin-1-yl]ethanone], the melting point fell in the range of 99 to 100 °C. Regarding `C[C@@H]1CN(c2ccc(-c3nccs3)cn2)C[C@H](C)N1CC(=O)N1CC=C(c2cccc3ccoc23)CC1` (as salt: oxalate) [Compound 119, 1-(4-benzofuran-7-yl-3,6-dihydro-2H-pyridin-1-yl)-2-[(2S,6R)-2,6-dimethyl-4-(5-thiazol-2-ylpyridin-2-yl)piperazin-1-yl]ethanone], the melting point fell in the range of 140 to 145 °C. Molecule `C[C@@H]1CN(c2ccc(-c3nnn(C)n3)cn2)C[C@H](C)N1CC(=O)N1CC=C(c2cccc3ccoc23)CC1` (as salt: oxalate) [Compound 120, 1-(4-benzofuran-7-yl-3,6-dihydro-2H-pyridin-1-yl)-2-{(2S,6R)-2,6-dimethyl-4-[5-(2-methyl-2H-tetrazol-5-yl)pyridin-2-yl]piperazin-1-yl}ethanone] returned a melting point of 165 to 170 °C. The result for `O=C(O)c1ccc(N2C3CCC2CN(CC(=O)N2CC=C(c4cccc5ccsc45)CC2)C3)nc1` [71] reads 121 to 122 °C. In turn, `O=C(O)c1ccc(N2C3CCC2CN(CC(=O)N2CC=C(c4cccc5ccsc45)CC2)C3)nc1` [85] returned a melting point of 191 to 192 °C. As to `O=C(CN1CCN(c2ccc(C(F)(F)F)cn2)CC1)N1CC=C(c2ccc3c(c2)OCCO3)CC1` [Compound 21, 1-[4-(2,3-dihydrobenzo[1,4]dioxin-6-yl)-3,6-dihydro-2H-pyridin-1-yl]-2-[4-(5-trifluoromethylpyridin-2-yl)piperazin-1-yl]ethanone], the melting point lay in the range of 142 to 143 °C. The molecule `O=C(CN1CCN(c2ccc(C(F)(F)F)cn2)C(=O)C1)N1CC=C(c2c[nH]c3ccccc23)CC1` [Compound 30, 4-{2-[4-(1H-indol-3-yl)-3,6-dihydro-2H-pyridin-1-yl]-2-oxoethyl}-1-(5-trifluoromethylpyridin-2-yl)piperazin-2-one] yielded a melting point of 230 to 233 °C. `O=C(CN1CCN(c2ccc(C(F)(F)F)cn2)C(=O)C1)N1CC=C(c2cccc3ccsc23)CC1` [Compound 31, 4-[2-(4-benzo[b]thiophen-7-yl-3,6-dihydro-2H-pyridin-1-yl)-2-oxoethyl]-1-(5-trifluoromethylpyridin-2-yl)piperazin-2-one] yielded a melting point of 143 to 146 °C. With `O=C(CN1CCN(c2ccc(C(F)(F)F)cn2)C(=O)C1)N1CC=C(c2cccc3ccoc23)CC1` [Compound 32, 4-[2-(4-benzofuran-7-yl-3,6-dihydro-2H-pyridin-1-yl)-2-oxoethyl]-1-(5-trifluoromethylpyridin-2-yl)piperazin-2-one], the melting point lay in the range of 151 to 152 °C.

Regarding `O=C(CN1CCN(c2ccc(C(F)(F)F)cn2)CC1)N1CC=C(c2cccc3ccoc23)CC1` [Compound 33, 1-(4-benzofuran-7-yl-3,6-dihydro-2H-pyridin-1-yl)-2-[4-(5-trifluoromethylpyridin-2-yl)piperazin-1-yl]ethanone], the melting point was in the range of 155 to 156 °C. In the case of `C[C@@H]1CN(c2cncnc2)C[C@H](C)N1CC(=O)N1CC=C(c2cccc3ccoc23)CC1` [Compound 35, 1-(4-benzofuran-7-yl-3,6-dihydro-2H-pyridin-1-yl)-2-((2S,6R)-2,6-dimethyl-4-pyrimidin-5-ylpiperazin-1-yl)ethanone] it was 142 to 143 °C.

Source of the values: patent US8518947B2, “(Heterocycle/tetrahydropyridine)-(piperazinyl)-1-alcanone and (heterocycle/dihydropyrrolidine)-(piperazinyl)-1-alcanone derivatives, and use thereof as p75 inhibitors” (Sanofi, priority 2009, dated 2013).
